Measurements published in patent publication US12599611B2, “Methods and compositions for treating seizure disorders in pediatric patients” (Neurelis, Inc., priority 2021, dated 2026).

Test system: beta frequency by EEG
Test: EEG monitoring of beta rhythm / beta frequency after diazepam administration
Conditions: after intranasal administration of 20 mg of diazepam via an intranasal composition

CN1C(=O)CN=C(c2ccccc2)c2cc(Cl)ccc21 [diazepam, 7-chloro-1,3-dihydro-1-methyl-5-phenyl-1,4-benzodiazepin-2-one]
time to changes in beta frequency (EEG): ≤ 10 min
